These results are taken from patent US8604046B2, “Substituted piperidine spiro pyrrolidinone and piperidinone, preparation and therapeutic use thereof” (Sanofi, priority 2008, dated 2013).

In assay [1] the target is T1, rhesus H3 receptor (Macaca mulatta, UniProt Q865E1). Put plainly: Rhesus H3 [3H]-methylhistamine radioligand binding assay. The arrangement: species or system rhesus monkey (Macacca Mulatta). The settings on record: [3H]-Methylhistamine 2 nM, rhesus H3 membranes, WGA SPA beads, Cheng-Prusoff. As for the experimental part:
(§1) Rhesus H3 membranes were prepared from the Flp-In T-REx 293 Cell Line (Invitrogen) stably transfected with pcDNA5/FRT/TO (Invitrogen) containing the rhesus monkey (Macacca Mulatta) 445 amino acid H3 receptor. (Genbank #AY231164). Stably transfected cultures were amplified in tissue culture flasks by standard tissue culture methods and induced to express rhesus H3 by exposure to 500 ng/ml tetracycline (Cellgro) for 24 hours. After induction, cells were dissociated from flasks utilizing Cell Stripper (Cellgro). Cells were centrifuged (1K×g, 5 min) and pellet frozen in an ethanol-dry ice bath to disrupt cell membranes. Frozen cell pellet was re-suspended in 5 mM HEPES (pH 7.4, Invitrogen) at 10 ml/1000 cm2 of harvested cells. The cell suspension was drawn through an 18 gauge needle (2-3×) followed by a 23 gauge needle (2-3×) to further disrupt cell membranes. The cell suspension was centrifuged (40K×g, 30 min). Cell membrane pellet was re-suspended in 5 mM HEPES (pH 7.4, Invitrogen) at a final protein concentration of 10 mg/ml. Rhesus H3 membranes were stored under liquid nitrogen prior to use in [3H]-Methylhistamine and GTP S radioligand binding assays.
Rhesus H3 radioligand binding assay was performed using rhesus H3 receptor membranes (prepared as described above), [3H]-Methylhistamine (Perkin Elmer) and WGA SPA beads (wheat germ agglutinin scintillation proximity assay) beads (Amersham). The assay was performed in 96-well Opti-Plates (Packard). Each reaction contained 50 μl rhesus H3 membranes (20-30 μg total protein), 50 μl WGA SPA beads (0.1 μg) and 50 μl of 83 Ci/mmol [^3H]-Methylhistamine (final concentration 2 nM) and 50 μl of tested compound. The compounds of this invention and/or vehicle were diluted with binding buffer from 10 mM DMSO stocks. Assay plates were sealed with TopSeal (Perkin Elmer) and mixed on shaker (25° C., 1 hour). Assay plates were read on TopCount scintillation counter (Packard). Results were analyzed by Hill transformation and Ki values were determined by Cheng-Prusoff equation.

For assay [2], the target named is T1, rhesus H3 receptor. Put plainly: GTPγS radioligand binding assay, inhibition of rhesus H3 constitutive functional activity (inverse agonism). It counts as biochemical, rhesus monkey (Macacca Mulatta). The arrangement: concentration or dose not given beside the values. As to conditions: rhesus H3 cell membranes, relative to basal levels. As for the experimental part: as §1

T1 sequence (Q865E1 1-445): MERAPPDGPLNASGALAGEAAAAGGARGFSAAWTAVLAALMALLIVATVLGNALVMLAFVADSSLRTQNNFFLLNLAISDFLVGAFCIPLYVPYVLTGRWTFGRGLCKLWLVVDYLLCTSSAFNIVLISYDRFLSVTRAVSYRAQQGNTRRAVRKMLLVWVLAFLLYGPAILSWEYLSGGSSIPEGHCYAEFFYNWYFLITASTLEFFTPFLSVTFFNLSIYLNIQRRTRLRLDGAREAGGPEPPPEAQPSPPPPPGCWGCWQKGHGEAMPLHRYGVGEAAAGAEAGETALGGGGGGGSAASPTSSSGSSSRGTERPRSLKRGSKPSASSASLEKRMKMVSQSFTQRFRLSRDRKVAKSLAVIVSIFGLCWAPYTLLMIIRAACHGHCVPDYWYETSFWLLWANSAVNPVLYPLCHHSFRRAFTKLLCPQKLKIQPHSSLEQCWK

What is called Ki is the equilibrium dissociation constant of an inhibitor or competing ligand from its target. Turning to `Cc1cc(N2CC[C@@H](N3CCC[C@@H]3C)C2)ccc1N1CCC2(CCNCC2)C1=O.Cl` [Example 9, 2-[2-Methyl-4-((2S,3′R)-2-methyl-[1,3′]bipyrrolidinyl-1′-yl)-phenyl]-2,8-diaza-spiro[4.5]decan-1-one Hydrochloride], the affinity on rhesus H3 receptor [1] corresponds to a Ki of 0.6 nM. On rhesus H3 receptor [2], the “Inverse Agonism: % inhibition of Basal GTPγS binding in Rhesus H3” value (from here on “Inverse Agonism: % inhibition”) is reported as −35%.

`Cc1cc(N2CCC(N3CCCC3C)C2)ccc1N1CCC2(CCN(C(=O)OC(C)(C)C)CC2)C1=O` (stereo not drawn) [Example 5, 2-[2-Methyl-4-(2-methyl-[1,3′]bipyrrolidinyl-1′-yl)-phenyl]-1-oxo-2,8-diaza-spiro[4.5]decane-8-carboxylic acid tert-butyl ester] came in with a Ki on rhesus H3 receptor [1] of 18 nM. Also, the “Inverse Agonism: % inhibition” value on rhesus H3 receptor [2] was −13%.

In turn, `C[C@H]1CCCN1C1CCN(c2ccc(N3CCC4(CCNCC4)C3=O)cc2)CC1.Cl` [Example 44, 2-{4-[4-(2S-2-Methyl-pyrrolidin-1-yl)-piperidin-1-yl]-phenyl}-2,8-diaza-spiro[4.5]decan-1-one Hydrochloride] had a Ki at rhesus H3 receptor [1] of 0.1 nM. The “Inverse Agonism: % inhibition” value at rhesus H3 receptor [2] was −19%.

In the case of `C[C@H]1CCCCN1[C@H]1CCN(c2ccc(N3CCC4(CCNCC4)C3=O)c(C(F)(F)F)c2)C1.Cl` [Example 48, 2-{4-[3-((2S,3′S)-2-Methyl-piperidin-1-yl)-pyrrolidin-1-yl]-2-trifluoromethyl-phenyl}-2,8-diaza-spiro[4.5]decan-1-one Hydrochloride], the affinity on rhesus H3 receptor [1], expressed as Ki, was 0.6 nM. On rhesus H3 receptor [2], the “Inverse Agonism: % inhibition” value was −24%.

Take `Cc1cc(N2CC[C@H](N3CCC[C@@H]3C)C2)ccc1N1CCC2(CCNCC2)C1=O` [Example 6, 2-[2-Methyl-4-((2S,3′S)-2-methyl-[1,3′]bipyrrolidinyl-1′-yl)-phenyl]-2,8-diaza-spiro[4.5]decan-1-one]: the inhibitory constant (Ki) on rhesus H3 receptor [1] amounted to 11 nM. Besides, on rhesus H3 receptor [2], the “Inverse Agonism: % inhibition” value is recorded as −22%.

On rhesus H3 receptor [1], `Cc1cc(N2CC[C@@H](N3CCC[C@H]3C)C2)ccc1N1CCC2(CCN(CC3CCCC3)CC2)C1=O` [Example 11, 8-Cyclopentylmethyl-2-[2-methyl-4-((2R,3′R)-2-methyl-[1,3′]bipyrrolidinyl-1′-l)-phenyl]-2,8-diaza-spiro[4.5]decan-1-one] came in with a Ki of 22 nM. In addition, the “Inverse Agonism: % inhibition” value at rhesus H3 receptor [2] was −29%.

Take `Cc1cc(N2CCC(N3CCCC3C)C2)ccc1N1CCC2(CCN(CC3CCCC3)CC2)C1=O` (stereo not drawn) [Example 14, 8-Cyclopentylmethyl-2-[2-methyl-4-(2-methyl-[1,3′]bipyrrolidinyl-1′-l)-phenyl]-2,8-diaza-spiro[4.5]decan-1-one]: the Ki at rhesus H3 receptor [1] amounted to 5.6 nM. For the same compound, the “Inverse Agonism: % inhibition” value at rhesus H3 receptor [2] was −31%.

As for `Cc1cc(N2CC[C@@H](N3CCC[C@H]3C)C2)ccc1N1CCC2(CCN(C(=O)OC(C)(C)C)CC2)C1=O` [Example 2, 2-[2-Methyl-4-((2R,3′R)-2-methyl-[1,3′]bipyrrolidinyl-1′-yl)-phenyl]-1-oxo-2,8-diaza-spiro[4.5]decane-8-carboxylic acid tert-butyl ester], the affinity on rhesus H3 receptor [1], expressed as Ki, was 248 nM. For the same compound, the “Inverse Agonism: % inhibition” value on rhesus H3 receptor [2] is reported as −30%.

Take `C[C@H]1CCCCN1[C@H]1CCN(c2ccc(N3CCC4(CCN(CC5CCOCC5)CC4)C3=O)c(F)c2)C1` [Example 59, 2-{2-Fluoro-4-[3-((2S,3′S)-2-methyl-piperidin-1-yl)-pyrrolidin-1-yl]-phenyl}-8-(tetrahydro-pyran-4-ylmethyl)-2,8-diaza-spiro[4.5]decan-1-one]: on rhesus H3 receptor [1], the inhibitory constant (Ki) was 4.6 nM. Also, the “Inverse Agonism: % inhibition” value at rhesus H3 receptor [2] is reported as −19%.

`C[C@H]1CCCN1C1CCN(c2ccc(N3CCC4(CCN(C(=O)OC(C)(C)C)CC4)C3=O)cc2)CC1` [Example 38, 2-{4-[4-(2S-2-Methyl-pyrrolidin-1-yl)-piperidin-1-yl]-phenyl}-1-oxo-2,8-diaza-spiro[4,5]decane-8-carboxylic acid tert-butyl ester] returned a Ki at rhesus H3 receptor [1] of 0.008 nM. For the same compound, at rhesus H3 receptor [2], the “Inverse Agonism: % inhibition” value is recorded as −25%.

On to `C[C@H]1CCCN1[C@H]1CCN(c2ccc(N3CCC4(CCN(C(=O)c5ccoc5)CC4)C3=O)c(C(F)(F)F)c2)C1` [Example 64, 8-(Furan-3-carbonyl)-2-[4-((2S,3′S)-2-methyl-[1,3′]bipyrrolidinyl-1′-yl)-2-trifluoromethyl-phenyl]-2,8-diaza-spiro[4.5]decan-1-one], for which the inhibition constant Ki at rhesus H3 receptor [1] turned out to be 9.6 nM. On rhesus H3 receptor [2], the “Inverse Agonism: % inhibition” value is reported as −19%.

`Cc1cc(N2CC[C@H](N3CCC[C@H]3C)C2)ccc1N1CCC2(CCN(C(=O)OC(C)(C)C)CC2)C1=O` [Example 1, 2-[2-Methyl-4-((2R,3′S)-2-methyl-[1,3′]bipyrrolidinyl-1′-yl)-phenyl]-1-oxo-2,8-diaza-spiro[4.5]decane-8-carboxylic acid tert-butyl ester] yielded an inhibitory constant (Ki) on rhesus H3 receptor [1] of 132 nM. In addition, at rhesus H3 receptor [2], the “Inverse Agonism: % inhibition” value is reported as −24%.

As for `C[C@H]1CCCN1[C@H]1CCN(c2ccc(N3CCC4(CCN(CC5CCOCC5)CC4)C3=O)c(C(F)(F)F)c2)C1` [Example 68, 2-[4-((2S,3′S)-2-Methyl-[1,3′]bipyrrolidinyl-1′-yl)-2-trifluoromethyl-phenyl]-8-(tetrahydro-pyran-4-ylmethyl)-2,8-diaza-spiro[4.5]decan-1-one], the Ki at rhesus H3 receptor [1] stood at 4.2 nM. For the same compound, the “Inverse Agonism: % inhibition” value on rhesus H3 receptor [2] was −19%.

`C[C@H]1CCCN1C1CCN(c2ccc(N3CCC4(CCNCC4)C3=O)c(C(F)(F)F)c2)CC1.Cl` [Example 45, 2-{4-[4-(2S-2-Methyl-pyrrolidin-1-yl)-piperidin-1-yl]-2-trifluoromethyl-phenyl}-2,8-diaza-spiro[4.5]decan-1-one Hydrochloride] registered a Ki on rhesus H3 receptor [1] of 0.15 nM. The “Inverse Agonism: % inhibition” value at rhesus H3 receptor [2] is reported as −19%.

On rhesus H3 receptor [1], `C[C@H]1CCCN1[C@H]1CCN(c2ccc(N3CCC4(CCN(C(=O)Cc5ccccc5)CC4)C3=O)c(C(F)(F)F)c2)C1` [Example 60, 2-[4-((2S,3′S)-2-Methyl-[1,3′]bipyrrolidinyl-1′-yl)-2-trifluoromethyl-phenyl]-8-phenylacetyl-2,8-diaza-spiro[4.5]decan-1-one] displayed a Ki of 144 nM. Also, the “Inverse Agonism: % inhibition” value at rhesus H3 receptor [2] is given as −19%.

`C[C@H]1CCCN1C1CCN(c2ccc(N3CCC4(CCN(CC5CC5)CC4)C3=O)c(F)c2)CC1` [Example 56, 8-Cyclopropylmethyl-2-{2-fluoro-4-[4-(2S-2-methyl-pyrrolidin-1-yl)-piperidin-1-yl]-phenyl}-2,8-diaza-spiro[4.5]decan-1-one] returned an inhibition constant (Ki) at rhesus H3 receptor [1] of 0.04 nM. For the same compound, on rhesus H3 receptor [2], the “Inverse Agonism: % inhibition” value is reported as −23%.

Take `C[C@H]1CCCCN1[C@H]1CCN(c2ccc(N3CCC4(CCNCC4)C3=O)cc2)C1.Cl` [Example 47, 2-{4-[3-((2S,3′S)-2-Methyl-piperidin-1-yl)-pyrrolidin-1-yl]-phenyl}-2,8-diaza-spiro[4.5]decan-1-one Hydrochloride]: affinity on rhesus H3 receptor [1] was put at a Ki of 0.4 nM. Besides, the “Inverse Agonism: % inhibition” value on rhesus H3 receptor [2] is recorded as −17%.

At rhesus H3 receptor [1], `Cc1cc(N2CC[C@@H](N3CCC[C@H]3C)C2)ccc1N1CCC2(CCN(C(=O)c3ccc(OC(F)(F)F)cc3)CC2)C1=O` [Example 16, 2-[2-Methyl-4-((2R,3′R)-2-methyl-[1,3′]bipyrrolidinyl-1′-yl)-phenyl]-8-(4-trifluoromethoxy-benzoyl)-2,8-diaza-spiro[4.5]decan-1-one] showed a Ki of 100 nM. On rhesus H3 receptor [2], the “Inverse Agonism: % inhibition” value is listed as −13%.
